From PubChem BioAssay (NCI)
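Each compound was tested at five concentrations against cells in 96-well plates for 48 hours. Here, GI50 denotes the concentration required for 50% inhibition of growth. TGI is the concentration that stops growth completely.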

What was measured:
Experiment in all cases: growth of human tumour cells (NCI), 48 h
UACC-257 melanoma = tested on: UACC-257 melanoma
HT29 colon = tested on: HT29 colon
SK-OV-3 ovarian = tested on: SK-OV-3 ovarian
HCT-15 colon = tested on: HCT-15 colon
RPMI-8226 leukemia = tested on: RPMI-8226 leukemia
HCC-2998 colon = tested on: HCC-2998 colon
SK-MEL-5 melanoma = tested on: SK-MEL-5 melanoma
OVCAR-5 ovarian = tested on: OVCAR-5 ovarian
UACC-62 melanoma = tested on: UACC-62 melanoma
NCI-H226 lung = tested on: NCI-H226 lung
MOLT-4 leukemia = tested on: MOLT-4 leukemia
HS 578T breast = tested on: HS 578T breast
DU-145 prostate = tested on: DU-145 prostate
RXF 393 renal = tested on: RXF 393 renal
HL-60(TB) leukemia = tested on: HL-60(TB) leukemia
OVCAR-3 ovarian = tested on: OVCAR-3 ovarian
HOP-62 NSCLC = tested on: HOP-62 NSCLC
SF-295 CNS = tested on: SF-295 CNS
A549 NSCLC = tested on: A549 NSCLC
CCRF-CEM leukemia = tested on: CCRF-CEM leukemia
NCI-H23 lung = tested on: NCI-H23 lung
SK-MEL-28 melanoma = tested on: SK-MEL-28 melanoma
SNB-19 CNS = tested on: SNB-19 CNS
HOP-92 NSCLC = tested on: HOP-92 NSCLC
NCI-H460 lung = tested on: NCI-H460 lung
KM12 colon = tested on: KM12 colon
MALME-3M melanoma = tested on: MALME-3M melanoma
UO-31 renal = tested on: UO-31 renal
MCF7 breast = tested on: MCF7 breast
SF-539 CNS = tested on: SF-539 CNS
SNB-75 CNS = tested on: SNB-75 CNS
SK-MEL-2 melanoma = tested on: SK-MEL-2 melanoma
ACHN renal = tested on: ACHN renal
NCI-H522 lung = tested on: NCI-H522 lung
BT-549 breast = tested on: BT-549 breast
U251 CNS = tested on: U251 CNS
T-47D breast = tested on: T-47D breast
M14 melanoma = tested on: M14 melanoma
HCT-116 colon = tested on: HCT-116 colon
COLO 205 colon = tested on: COLO 205 colon
LOX IMVI melanoma = tested on: LOX IMVI melanoma
786-0 renal = tested on: 786-0 renal
TK-10 renal = tested on: TK-10 renal
OVCAR-4 ovarian = tested on: OVCAR-4 ovarian
MDA-MB-231 breast = tested on: MDA-MB-231 breast
OVCAR-8 ovarian = tested on: OVCAR-8 ovarian
NCI/ADR-RES ovarian = tested on: NCI/ADR-RES ovarian
A498 renal = tested on: A498 renal
SW-620 colon = tested on: SW-620 colon
MDA-MB-435 = tested on: MDA-MB-435
EKVX NSCLC = tested on: EKVX NSCLC
PC-3 prostate = tested on: PC-3 prostate
SF-268 CNS = tested on: SF-268 CNS
K-562 leukemia = tested on: K-562 leukemia
IGROV1 ovarian = tested on: IGROV1 ovarian
CAKI-1 renal = tested on: CAKI-1 renal
SN12C renal = tested on: SN12C renal

Compound COc1cc(C(=O)N2N=C(c3ccc(S(C)(=O)=O)cc3)CC2c2ccco2)cc(OC)c1OC (centres undefined) has a GI50 (UACC-257 melanoma) of over 100 µM, a TGI (UACC-257 melanoma) of over 100 µM and a GI50 (HT29 colon) of 3.17 µM. For the same compound, the TGI (HT29 colon) was over 100 µM, the GI50 (SK-OV-3 ovarian) was 4.9 µM and the TGI (SK-OV-3 ovarian) was over 100 µM. The GI50 (HCT-15 colon) was 4.13 µM, the TGI (HCT-15 colon) was over 100 µM and the GI50 (RPMI-8226 leukemia) was 0.647 µM. For the same compound, the TGI (RPMI-8226 leukemia) was 4.36 µM, the GI50 (HCC-2998 colon) was 21 µM and the TGI (HCC-2998 colon) was over 100 µM. It also gave a GI50 (SK-MEL-5 melanoma) of 2.99 µM, a TGI (SK-MEL-5 melanoma) of over 63.2 µM and a GI50 (OVCAR-5 ovarian) of over 80.2 µM. The TGI (OVCAR-5 ovarian) was over 100 µM, the GI50 (UACC-62 melanoma) was 3.82 µM and the TGI (UACC-62 melanoma) was over 100 µM. It also gave a GI50 (NCI-H226 lung) of over 57.3 µM, a TGI (NCI-H226 lung) of over 100 µM and a GI50 (MOLT-4 leukemia) of 3.08 µM. For the same compound, the TGI (MOLT-4 leukemia) was over 100 µM, the GI50 (HS 578T breast) was 5.42 µM and the TGI (HS 578T breast) was over 100 µM. The GI50 (DU-145 prostate) was 7.04 µM, the TGI (DU-145 prostate) was over 78.1 µM and the GI50 (RXF 393 renal) was 4.74 µM. For the same compound, the TGI (RXF 393 renal) was 56 µM, the GI50 (HL-60(TB) leukemia) was 1.41 µM and the TGI (HL-60(TB) leukemia) was 4.47 µM. The GI50 (OVCAR-3 ovarian) was 1.95 µM, the TGI (OVCAR-3 ovarian) was 5.46 µM and the GI50 (HOP-62 NSCLC) was 26.7 µM. The TGI (HOP-62 NSCLC) was over 100 µM, the GI50 (SF-295 CNS) was 3.04 µM and the TGI (SF-295 CNS) was over 100 µM. The GI50 (A549 NSCLC) was 6.92 µM, the TGI (A549 NSCLC) was over 100 µM and the GI50 (CCRF-CEM leukemia) was 2.5 µM. It also gave a TGI (CCRF-CEM leukemia) of over 25.4 µM, a GI50 (NCI-H23 lung) of 15.2 µM and a TGI (NCI-H23 lung) of over 100 µM. It also gave a GI50 (SK-MEL-28 melanoma) of 22.2 µM, a TGI (SK-MEL-28 melanoma) of over 100 µM and a GI50 (SNB-19 CNS) of 5.92 µM. It also gave a TGI (SNB-19 CNS) of over 100 µM, a GI50 (HOP-92 NSCLC) of 3.65 µM and a TGI (HOP-92 NSCLC) of over 100 µM. The GI50 (NCI-H460 lung) was 3.51 µM, the TGI (NCI-H460 lung) was over 100 µM and the GI50 (KM12 colon) was 3.51 µM. For the same compound, the TGI (KM12 colon) was over 100 µM, the GI50 (MALME-3M melanoma) was 5.01 µM and the TGI (MALME-3M melanoma) was over 100 µM. For the same compound, the GI50 (UO-31 renal) was 7.23 µM, the TGI (UO-31 renal) was over 100 µM and the GI50 (MCF7 breast) was 2.89 µM. The TGI (MCF7 breast) was over 100 µM, the GI50 (SF-539 CNS) was 3.12 µM and the TGI (SF-539 CNS) was 17.4 µM. It also gave a GI50 (SNB-75 CNS) of 2.91 µM, a TGI (SNB-75 CNS) of over 46 µM and a GI50 (SK-MEL-2 melanoma) of 8.68 µM. The TGI (SK-MEL-2 melanoma) was over 100 µM, the GI50 (ACHN renal) was 5.76 µM and the TGI (ACHN renal) was over 100 µM. The GI50 (NCI-H522 lung) was 3.95 µM, the TGI (NCI-H522 lung) was over 61.6 µM and the GI50 (BT-549 breast) was 5.2 µM. For the same compound, the TGI (BT-549 breast) was over 71.7 µM, the GI50 (U251 CNS) was 5.09 µM and the TGI (U251 CNS) was over 100 µM. For the same compound, the GI50 (T-47D breast) was 3.79 µM, the TGI (T-47D breast) was over 100 µM and the GI50 (M14 melanoma) was 5.81 µM. It also gave a TGI (M14 melanoma) of over 87.6 µM, a GI50 (HCT-116 colon) of 3.77 µM and a TGI (HCT-116 colon) of over 100 µM. For the same compound, the GI50 (COLO 205 colon) was 2.27 µM, the TGI (COLO 205 colon) was 10.1 µM and the GI50 (LOX IMVI melanoma) was 5.85 µM. For the same compound, the TGI (LOX IMVI melanoma) was over 100 µM, the GI50 (786-0 renal) was 8.51 µM and the TGI (786-0 renal) was over 100 µM. For the same compound, the GI50 (TK-10 renal) was 29 µM, the TGI (TK-10 renal) was over 100 µM and the GI50 (OVCAR-4 ovarian) was 7.45 µM. The TGI (OVCAR-4 ovarian) was over 100 µM, the GI50 (MDA-MB-231 breast) was 11.2 µM and the TGI (MDA-MB-231 breast) was over 100 µM. It also gave a GI50 (OVCAR-8 ovarian) of 20.2 µM, a TGI (OVCAR-8 ovarian) of over 100 µM and a GI50 (NCI/ADR-RES ovarian) of 6.04 µM. It also gave a TGI (NCI/ADR-RES ovarian) of over 67.7 µM, a GI50 (A498 renal) of 5.15 µM and a TGI (A498 renal) of over 100 µM. The GI50 (SW-620 colon) was 3.62 µM, the TGI (SW-620 colon) was over 100 µM and the GI50 (MDA-MB-435) was 1.27 µM. For the same compound, the TGI (MDA-MB-435) was 7.27 µM, the GI50 (EKVX NSCLC) was 21.3 µM and the TGI (EKVX NSCLC) was over 100 µM. The GI50 (PC-3 prostate) was 2.93 µM, the TGI (PC-3 prostate) was over 100 µM and the GI50 (SF-268 CNS) was 8.93 µM. It also gave a TGI (SF-268 CNS) of over 100 µM, a GI50 (K-562 leukemia) of 4.81 µM and a TGI (K-562 leukemia) of over 100 µM. For the same compound, the GI50 (IGROV1 ovarian) was 5.4 µM, the TGI (IGROV1 ovarian) was over 100 µM and the GI50 (CAKI-1 renal) was 4.94 µM. It also gave a TGI (CAKI-1 renal) of over 90.8 µM, a GI50 (SN12C renal) of 12.3 µM and a TGI (SN12C renal) of over 100 µM.
